From US10653688B2, “6-(6-membered heteroaryl and aryl)isoquinolin-3-yl carboxamides and preparation and use thereof” (Samumed, LLC, priority 2017, dated 2020)
Like-named read-outs stand apart in the source and are kept apart here.

What was measured:
recombinant GSK3β kinase = recombinant GSK3β kinase (Homo sapiens (Human), UniProt P49841); experiment: GSK3β kinase assay (Ser/Thr 09 peptide Z-lyte, FRET); format: biochemical;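 further: FRET read-out as coumarin over fluorescein emission ratio, compounds incubated one hour at room temperature, IC50 from dose-response curve fit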
Experimental: Each compound is dissolved in DMSO as a 10 mM stock and used to prepare compound source plates. Serial dilution (1:3, 11-point dose-response curves from 10 M to 0.0003 M) and compound transfer was performed using the ECHO 550 (Labcyte, Sunnyvale, Calif.) into 1536-well black-walled round bottom plates (Corning).
This is a non-radioactive assay using fluorescence resonance energy transfer (FRET) between coumarin and fluorescein to detect kinase activity which is represented as ratio of coumarin emission/fluorescein emission.
The mixture is allowed to incubate with the representative compounds for one hour at room temperature. All reactions were performed in duplicate. Unphosphorylated (“0% Control”) and phosphorylated (“100% control”) forms of Ser/Thr 18 serve as control reactions.
After incubation, diluted Development Buffer is added to the reaction and allowed to further incubate for one hour at room temperature.
Dose-response curves are generated and inhibitory concentration (IC50) values are calculated using non-linear regression curve fit in the Dotmatics' Studies Software (Bishops Stortford, UK).

[1] = tested on: IL-6 in human peripheral blood mononuclear cells (huPBMCs); experiment: IL-6 inhibition in LPS-stimulated human peripheral blood mononuclear cells (HTRF); format: cell-based; conditions: Homo sapiens, PBMC; for EC50: LPS 50 ng/mL, 22 hours, IL-6 HTRF; for inhibition at 10 µM: read-out: percent inhibition at 10 μM (given for EC50 >10 μM), LPS, IL-6, 10 μM
Summary of the method: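 Fresh normal human PBMCs at 1×10e6 cells/mL in RPMI with 1% FBS received compound, then 50 ng/mL E. coli 0111:B4 LPS 2 h later, and were incubated a further 22 h at 37° C. IL-6 read by HTRF (665/620 nm ratio), normalized to DMSO; EC50 from 4-parameter fit.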

[2] = tested on: LL29 cells (primary human fibroblasts derived from IPF patients), α-smooth muscle actin; experiment: Inhibition of fibrotic process: TGF-β1-treated primary human fibroblasts, αSMA staining; format: cell-based; conditions: Homo sapiens, Fibroblast; for EC50: 96 h, TGF-β1 20 ng/mL, 4 days, % cells positive for αSMA; for inhibition at 10 µM: read-out: percent inhibition at 10 μM (given for EC50 >10 μM), TGF-β1, αSMA, 10 μM;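 on all read-outs here: controls were TGF-β1-stimulated wells with DMSO vehicle as the positive reference and cells given DMSO alone as the negative reference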
[3] = tested on: Wnt activity (SW480 colon carcinoma cells stably expressing the Sp5-Luc reporter gene); experiment: Wnt activity screening assay (Sp5-Luc reporter gene assay); format: cell-based, human; conditions: Homo sapiens; for EC50: 36 to 48 hours; for inhibition at 10 µM: read-out: percent inhibition at 10 μM (given for EC50 >10 μM), 10 μM
Summary of the method: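 SW480 colon carcinoma cells stably carrying a lentiviral luciferase reporter driven by an Sp5 promoter with eight TCF/LEF sites, plated at 4,000 cells/well in DMEM with 1% FBS. Compound exposure for 36–48 h at 37 °C, then luminescence read. Signals normalized to DMSO; EC50 from four-parameter nonlinear fit.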

[4] = tested on: secreted cytokines TNFα, IL-6 and KC-GRO in BV-2 cells (mouse microglial cells); experiment: Secreted cytokines in lipopolysaccharide-stimulated mouse glial cell line; format: cell-based; conditions: LPS 250 ng/mL 5 hours, table does not say which cytokine
Experimental: Representative compounds were screened using the cell-based assay procedure for secreted cytokines in a Lipopolysaccharide-stimulated mouse glial cell line described below.
BV-2 cells (mouse microglial cells) were cultured in 1:1 DMEM medium supplemented with 10% FBS, and 1% penicillin/streptomycin.
BV-2 cells are plated at 35,000 cells/well in a volume of 100 μl for at least 4 hours before compounds are added. DMSO-resuspended compounds were first dispensed in a 96-well plate and serial diluted from 10 μM to 4.6 nM final concentration in medium. Compounds were added to cells overnight. 250 ng/mL of lipopolysaccharide (Escherichia coli O111:B4, SIGMA) was added for 5 hours. Supernatant is removed and saved for further cytokine detection. The original plates with seeded cells were tested for cytotoxicity by measure of adenosine triphosphate (ATP) release by adding CellTiter-Glo® diluted 1:4 in distilled water (G7573, Promega) and transferring lysed cells to a completely black 96-well plate to be read with the Cytation3. Supernatant was then diluted 1:2 with a diluent from V-PLEX cytokine Kit and directly tested for the secreted cytokines TNFα, IL-6 and KC-GRO using electrochemiluminescence (Meso Scale Discovery). The standard curve for each cytokine was used to convert the electrochemiluminescent signal into pg of protein per mL. The signal was used to plot, draw the curve fitting, and determine each compounds EC50 in Prism (GraphPad).

[5] = tested on: SW480 colon carcinoma cells; experiment: Cell viability assay (CellTiter-Glo); format: cell-based, human; conditions: Homo sapiens; for EC50: 96 h, four days, CellTiter-Glo; for inhibition at 10 µM: read-out: percent inhibition at 10 μM (given for EC50 >10 μM), 10 μM
[6] = molecular target: recombinant DYRK1A kinase (Homo sapiens (Human), UniProt Q13627); experiment: DYRK1A kinase assay (Ser/Thr 18 peptide Z-lyte, FRET)
[7] = tested on: pT212Tau in Dyrk1a- and MAPT-overexpressing HEK293T cells; experiment: Tau phosphorylation at Threonine 212 (pT212Tau) sandwich ELISA in double transfected cells; conditions: Homo sapiens, HEK-293T, read-out: Thr212 EC50 (μM)
Experimental: HEK293T cells (transfectable human embryonic kidney cells) were cultured in DMEM medium supplemented with 10% FBS and 1% penicillin/streptomycin.
HEK293T cells were transiently transfected to overexpress Dyrk1a and microtubule-associated protein Tau (MAPT) genes. Specifically, Dyrk1a and MAPT expression vectors were obtained from OriGene (10 μg of each, catalog numbers SC314641 and RC216166, respectively). […] HEK293T cells were seeded at 1.0×10^7 cells in 10 mL per T-75 flask. […] One T-75 flask was designated as a no-vector negative control for pT212Tau signal.
After 4-6 hours of incubation in transfection reagents, transiently double transfected HEK293T cells were dissociated by treatment with trypsin EDTA and seeded at 1.0×10^5 cells in 100 μL per well in 96-well plates. No-vector negative controls were seeded in separate 96-well plates to avoid the risk of the negative control cells picking up the overexpression during incubation.
96-well flat-bottom plates were coated with 100 μL per well anti-HT7 capture antibody (ThermoFisher, MN1000) diluted 1:300 in 1×PBS at 4° C. overnight, with shaking at 500 rpm.
Cells were then lysed with 100 μL 1×RIPA buffer supplemented with phosphatase and protease inhibitors (each diluted to a final 1×). […] V-bottom plates were centrifuged at 4000 rpm, 4° C., for 15 minutes, and 100 μL of lysate supernatant from each well was directly tested for pT212Tau signal by sandwich ELISA.

[8] = tested on: Tau phosphorylation at Ser396 (pSer396) in SH-SY5Y cells; experiment: Tau phosphorylation at Ser396 (pSer396) cell assay, ELISA/western blot; format: cell-based, human
Experimental: SH-SY5Y cells (human neuroblastoma) were cultured in DMEM/F-12 medium supplemented with 15% FBS, Non-essential Amino Acid and Penicillin/Streptomycin. Two days before treatment, cells were seeded onto 96 well plates at 5×10^4 cells/well.
The above synthesized compounds were screened using the cell assay procedure to assess decrease Tau phosphorylation at Ser396 (pSer396) described below.
DMSO-resuspended compounds were dispensed to 8 wells as a serial titration from 10 μM to 4.6 nM final in medium and cells were exposed overnight (16-18 h) in a humidified incubator at 36.6c before harvest.
Cells were lysed with RIPA buffer complemented with phosphatase and protease inhibitors then lysates were spun down at 12,000 g for 10 min to remove any cellular debris. Lysates are then either directly tested for pSer396 by ELISA (Life Technology, Kit KHB7031) or loaded on NuPage Bis-Tris gels for western blot analysis. Colorimetric detection of ELISA signal is performed by Cytation3 plate reader (Biotek) and the chemiluminescence signal for HRP-linked antibodies used in western blotting is detected using a Carestream Image Station. The same pSer396 antibody is used for detection of pTau in both assays.
Blot densitometry for pSer396 and β-actin were analyzed using ImageJ (NIH) and pSer396 Tau ELISA signal was used to plot, draw the curve fitting, and determine each compounds EC50 in Prism (GraphPad).

[9] = GSK3β kinase, head says EC50, method says IC50, ATP 46 μM
[10] = DYRK1A kinase, head says EC50, method says IC50, ATP 30 μM
[11] = Homo sapiens, SH-SY5Y cells, overnight (16-18 h), read-out: pSer396 Tau EC50

Sequence of recombinant GSK3β kinase (P49841 whole entry): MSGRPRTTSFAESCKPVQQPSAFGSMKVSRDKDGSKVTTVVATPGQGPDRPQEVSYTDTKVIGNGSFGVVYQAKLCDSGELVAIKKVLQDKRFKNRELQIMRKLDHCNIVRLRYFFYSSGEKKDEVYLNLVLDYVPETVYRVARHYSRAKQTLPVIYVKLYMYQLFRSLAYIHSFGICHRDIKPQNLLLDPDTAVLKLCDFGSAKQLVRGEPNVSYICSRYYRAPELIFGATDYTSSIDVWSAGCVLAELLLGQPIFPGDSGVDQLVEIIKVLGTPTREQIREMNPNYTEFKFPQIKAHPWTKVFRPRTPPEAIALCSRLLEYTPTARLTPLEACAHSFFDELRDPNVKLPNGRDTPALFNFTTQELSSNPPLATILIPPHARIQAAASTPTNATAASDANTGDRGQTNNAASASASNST

SMILES | EC50 (recombinant GSK3β kinase; [9]) [µM] | EC50 [1] [µM] | EC50 [3] [µM] | EC50 [4] [µM] | EC50 [5] [µM] | EC50 [6, 10] [µM] | EC50 (recombinant GSK3β kinase) [µM] | EC50 [8, 11] [µM] | EC50 [6] [µM] | EC50 [2] [µM] | EC50 [7] [µM] | inhibition at 10 µM [1] [%] | inhibition at 10 µM [3] [%] | inhibition at 10 µM [5] [%] | inhibition at 10 µM [2] [%] | EC50 ([8]; Homo sapiens, SH-SY5Y, read-out: EC50 in the Tau assay) [µM] | EC50 ([8]; control DYRK1A inhibitors, printed '>10 M' (μ apparently lost), read-out: EC50 in the Tau assay) [µM]
CN1CCN(c2cc(C(=O)Nc3cc4cc(-c5cncc(C(F)F)c5)ccc4cn3)ccn2)CC1 [Compound 28, N-(6-(5-(Difluoromethyl)pyridin-3-yl)isoquinolin-3-yl)-2-(4-methylpiperazin-1-yl)isonicotinamide] | > 10 | 7.43 | 4.67 | 0.295 | 4.15 | 0.011 |  |  |  | 1.52 | 1.6 |  |  |  |  |  | 
CN1CCC(C(=O)Nc2cc3cc(-c4cnc(N)nc4)ccc3cn2)CC1 [Compound 65, N-(6-(2-Aminopyrimidin-5-yl)isoquinolin-3-yl)-1-methylpiperidine-4-carboxamide] |  | > 10 | > 10 |  | > 10 |  | 8.97 | > 10 | 0.048 | 2.44 |  | 0 | 32.2 | 47.1 |  |  | 
O=C(Nc1cc2cc(-c3cncc(C(F)F)c3)ccc2cn1)c1cccc(C2CCNCC2)c1 [Compound 26, N-(6-(5-(Difluoromethyl)pyridin-3-yl)isoquinolin-3-yl)-3-(piperidin-4-yl)benzamide] | > 10 | 1.32 | 1.55 | 0.479 | 1.86 | 0.029 |  |  |  | 1.33 | 1.4 |  |  |  |  |  | 
O=C(CN1CCCC1)Nc1cc2cc(-c3cnccn3)ccc2cn1 [Compound 74, N-(6-(Pyrazin-2-yl)isoquinolin-3-yl)-2-(pyrrolidin-1-yl)acetamide] | 1.69 | > 10 | > 10 | 1.43 | > 10 | 0.094 |  |  |  | > 10 | 2.1 | 4.9 | 17.5 | 125 | 18.7 |  | 
O=C(Nc1cc2cc(-c3cncc(OC4CCNCC4)c3)ccc2cn1)C1CC1 [Compound 55, N-(6-(5-(Piperidin-4-yloxy)pyridin-3-yl)isoquinolin-3-yl) cyclopropanecarboxamide] | 1.03 | 3.23 | 0.698 |  | 1.19 | 0.005 |  | 1.1 |  | 2.06 |  |  |  |  |  |  | 
COc1ccc2c(c1)[nH]c1c(C)nccc12 [Harmine, reference compound] |  |  |  |  |  |  |  |  |  |  |  |  |  |  |  | > 10 | 
CCN1/C(=C/C(C)=O)Sc2ccc(O)cc21 [Indy, reference compound] |  |  |  |  |  |  |  |  |  |  |  |  |  |  |  |  | > 10
O=C(CN1CCOCC1)Nc1cc2cc(-c3cnccn3)ccc2cn1 [Compound 79, 2-Morpholino-N-(6-(pyrazin-2-yl)isoquinolin-3-yl)acetamide] | 1.31 | > 10 | > 10 | 1.7 | > 10 | 0.079 |  |  |  | > 10 | 0.959 | 3.9 | 7.9 | 24.8 | 17.2 |  | 
CN1CCCC(C(=O)Nc2cc3cc(-c4cnccn4)ccc3cn2)CC1 (centres unmarked) [Compound 80, 1-Methyl-N-(6-(pyrazin-2-yl)isoquinolin-3-yl)azepane-4-carboxamide] | 1.56 | > 10 | > 10 |  | > 10 | 0.027 |  |  |  | 9.13 | 1.4 | 4.9 | 9.6 | 32 |  |  | 

Now from value to compound, other results behind:

EC50 (recombinant GSK3β kinase; [9]) [µM] | EC50 [1] [µM] | EC50 [3] [µM] | EC50 [4] [µM] | EC50 [5] [µM] | EC50 [6, 10] [µM] | EC50 (recombinant GSK3β kinase) [µM] | EC50 [8, 11] [µM] | EC50 [6] [µM] | SMILES | EC50 [2] [µM] | EC50 [7] [µM] | inhibition at 10 µM [1] [%] | inhibition at 10 µM [3] [%] | inhibition at 10 µM [5] [%] | inhibition at 10 µM [2] [%] | EC50 ([8]; Homo sapiens, SH-SY5Y, read-out: EC50 in the Tau assay) [µM] | EC50 ([8]; control DYRK1A inhibitors, printed '>10 M' (μ apparently lost), read-out: EC50 in the Tau assay) [µM]
 | > 10 | > 10 | 2.97 | > 10 |  | 0.859 |  | 0.123 | O=C(CN1CCOCC1)Nc1cc2cc(-c3cccnn3)ccc2cn1 [Compound 66, 2-morpholino-N-(6-(pyridazin-3-yl)isoquinolin-3-yl)acetamide] | > 10 | 0.791 | 8.1 | 8.2 | 17.5 | 10.6 |  | 
0.487 | 5.99 | 1.26 |  | 6.98 | 0.002 |  | > 10 |  | CC(=O)Nc1cncc(-c2ccc3cnc(NC(=O)C4CCN(C)CC4)cc3c2)c1 [Compound 47, N-(6-(5-Acetamidopyridin-3-yl)isoquinolin-3-yl)-1-methylpiperidine-4-carboxamide] | 0.556 |  |  |  |  |  |  | 
> 10 | > 10 | > 10 |  | > 10 | 0.221 |  | > 10 |  | Cc1ncc(-c2ccc3cnc(NC(=O)C4CCN(C)CC4)cc3c2)cn1 [Compound 63, 1-Methyl-N-(6-(2-methylpyrimidin-5-yl)isoquinolin-3-yl)piperidine-4-carboxamide] | 2.39 |  | 7.9 | 9.9 | 7.4 |  |  | 
 | > 10 | > 10 | 1.32 | > 10 |  | 1.77 |  | 0.07 | O=C(CN1CCOCC1)Nc1cc2cc(-c3cncc(F)c3)ccc2cn1 [Compound 22, N-(6-(5-Fluoropyridin-3-yl)isoquinolin-3-yl)-2-morpholinoacetamide] | 2.06 | 0.253 | 22.9 | 10.9 | 17.2 |  |  | 
> 10 | 9.16 | 1.11 | 0.847 | 1.95 | 0.029 |  |  |  | CN1CCC(c2cccc(C(=O)Nc3cc4cc(-c5cncc(C(F)F)c5)ccc4cn3)c2)CC1 [Compound 27, N-(6-(5-(Difluoromethyl)pyridin-3-yl)isoquinolin-3-yl)-3-(1-methylpiperidin-4-yl)benzamide] | 0.979 | 6.8 |  |  |  |  |  | 
 | > 10 | > 10 | 0.717 | > 10 |  | 1.54 |  | 0.027 | CC(C)(O)CN1CCCC(C(=O)Nc2cc3cc(-c4cnccn4)ccc3cn2)CC1 (centres unmarked) [Compound 82, 1-(2-Hydroxy-2-methylpropyl)-N-(6-(pyrazin-2-yl)isoquinolin-3-yl)azepane-4-carboxamide] | 3.15 | 0.192 | 9.9 | 3.4 | 20 |  |  | 
